According to ChEMBL document CHEMBL1147880, “beta-Alkylthio indolyl carbinols: potent nonsteroidal antiandrogens with oral efficacy in a prostate cancer model” (Bioorg Med Chem Lett, 2007):
Active and inactive are the calls of the source. No cut-off for these calls is given here.

How the values were obtained:
Rattus norvegicus [1] = assay: Reduction of prostate weight in orally dosed immature rat; assay type: functional, Prostate gland; design: Activity: scale not given: the % may be the effect or the level left
Rattus norvegicus [2] = assay: Reduction of prostate weight in orally dosed mature rat; assay type: functional; conditions: Prostate gland, po, read-out: ID50 (the source's name)
[3] = Half life in mature rat; assay type: ADME, organism-based; conditions: in vivo
Rattus norvegicus [4] = assay: Reduction of prostate weight in orally dosed castrated mature rat; assay type: functional, organism-based; conditions: Prostate gland
LNCaP = assay: Inhibition of tumor growth in LNCaP cells xenografted mouse at 100 mg/kg, po after 51 days; assay type: functional, organism-based; design: dose 100 mg/kg; conditions: Homo sapiens
[5] = Oral bioavailability in mature rat; assay type: ADME, organism-based; conditions: in vivo
[6] = target: T1, Androgen receptor (Homo sapiens) (UniProt P10275); assay: Binding affinity to AR expressed in COS cells by whole-cell binding assay; assay type: cell-based
T1 sequence (whole entry): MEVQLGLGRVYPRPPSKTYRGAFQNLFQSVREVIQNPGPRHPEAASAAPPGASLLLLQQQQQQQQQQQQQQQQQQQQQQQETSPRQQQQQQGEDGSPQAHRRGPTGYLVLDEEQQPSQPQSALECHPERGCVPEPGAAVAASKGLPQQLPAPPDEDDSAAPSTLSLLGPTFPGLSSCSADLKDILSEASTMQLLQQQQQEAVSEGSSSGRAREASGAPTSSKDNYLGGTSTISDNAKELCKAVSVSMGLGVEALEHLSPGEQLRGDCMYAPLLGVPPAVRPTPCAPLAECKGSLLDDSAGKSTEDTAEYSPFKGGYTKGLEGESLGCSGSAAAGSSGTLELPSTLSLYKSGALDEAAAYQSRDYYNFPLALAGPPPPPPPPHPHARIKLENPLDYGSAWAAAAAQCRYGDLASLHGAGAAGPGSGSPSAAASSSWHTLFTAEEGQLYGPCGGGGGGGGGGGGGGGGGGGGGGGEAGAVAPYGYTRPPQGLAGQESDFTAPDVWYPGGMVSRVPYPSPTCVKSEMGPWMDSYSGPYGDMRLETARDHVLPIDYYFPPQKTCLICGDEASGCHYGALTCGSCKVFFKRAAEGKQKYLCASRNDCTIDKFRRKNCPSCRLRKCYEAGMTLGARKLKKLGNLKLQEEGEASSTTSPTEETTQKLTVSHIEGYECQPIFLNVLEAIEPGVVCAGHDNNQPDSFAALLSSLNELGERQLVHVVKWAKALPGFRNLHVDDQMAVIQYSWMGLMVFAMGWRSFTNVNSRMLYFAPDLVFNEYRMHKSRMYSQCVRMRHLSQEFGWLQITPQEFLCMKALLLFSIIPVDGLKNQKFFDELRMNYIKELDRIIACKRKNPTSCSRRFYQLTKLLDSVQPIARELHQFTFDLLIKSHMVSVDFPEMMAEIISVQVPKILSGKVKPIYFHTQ

CSCC[C@@](C)(O)c1cc2cc([N+](=O)[O-])c(C(F)(F)F)cc2[nH]1
Activity (Rattus norvegicus [1]): 44%

CCSC[C@](C)(O)c1cc2cc(C#N)c(C)cc2[nH]1
Activity (Rattus norvegicus [1]; Prostate gland): inactive

CCSC[C@](C)(O)c1cc2cc([N+](=O)[O-])ccc2[nH]1
Activity (Rattus norvegicus [1]): 34%

CC(C)CSC[C@@](C)(O)c1cc2cc([N+](=O)[O-])c(C(F)(F)F)cc2[nH]1
Activity (Rattus norvegicus [1]): 75%

CCSC[C@](C)(O)c1cc2cc(C#N)c(C(F)(F)F)cc2[nH]1 [listing 1 of 2 here]
Activity (Rattus norvegicus [1]): 100%
ID50 (Rattus norvegicus [1]): 0.44 mg/day
ED50 (Rattus norvegicus [2]): 22 mg/kg

C[C@@](O)(CSCC(F)(F)F)c1cc2cc([N+](=O)[O-])c(C(F)(F)F)cc2[nH]1
Activity (Rattus norvegicus [1]): 46%

CCCSC[C@@](C)(O)c1cc2cc([N+](=O)[O-])c(C(F)(F)F)cc2[nH]1
Activity (Rattus norvegicus [1]): 40%

CCSCC(C)(O)c1cc2cc([N+](=O)[O-])cc(C(F)(F)F)c2[nH]1 (configuration not stated)
Activity (Rattus norvegicus [1]): 66%

CSC[C@@](C)(O)c1cc2cc([N+](=O)[O-])c(C(F)(F)F)cc2[nH]1
Activity (Rattus norvegicus [1]): 66%

C[C@@](O)(CSCc1ccccc1)c1cc2cc([N+](=O)[O-])c(C(F)(F)F)cc2[nH]1
Activity (Rattus norvegicus [1]): 54%

CCSC[C@](C)(O)c1cc2ccccc2[nH]1
Activity (Rattus norvegicus [1]): 26%

CCc1c([C@@](C)(O)CS(=O)(=O)CC)[nH]c2cc(C(F)(F)F)c(C#N)cc12
half-life [3]: 0.9 h
ID50 (Rattus norvegicus [1]): 1.4 mg/day

CCSC[C@](C)(O)c1cc2cc(C#N)c(C(F)(F)F)cc2n1CC
Activity (Rattus norvegicus [1]): 55%

CCSC[C@@](C)(OC)c1cc2cc([N+](=O)[O-])c(C(F)(F)F)cc2[nH]1
Activity (Rattus norvegicus [1]): 76%

CCSC[C@](C)(O)c1cc2cc(C#N)ccc2[nH]1
Activity (Rattus norvegicus [1]; Prostate gland): inactive

CCSC[C@](C)(O)c1cc2cc(N)c(C(F)(F)F)cc2[nH]1
Activity (Rattus norvegicus [1]; Prostate gland): inactive

CC(C)SC[C@@](C)(O)c1cc2cc([N+](=O)[O-])c(C(F)(F)F)cc2[nH]1
Activity (Rattus norvegicus [1]): 42%

CCSC[C@](C)(O)c1cc2cc(C#N)c(C(F)(F)F)cc2n1CC#N
Activity (Rattus norvegicus [1]; Prostate gland): inactive

CCSC[C@](C)(O)c1cc2cc(F)c(Cl)cc2[nH]1
Activity (Rattus norvegicus [1]): 60%

CC[S+]([O-])C[C@](C)(O)c1cc2cc(C#N)c(C(F)(F)F)cc2[nH]1 (some centres not stated)
Activity (Rattus norvegicus [1]): 62%

CCSC[C@](C)(O)c1cc2cc(C#N)c(C(F)(F)F)cc2n1C
Activity (Rattus norvegicus [1]): 43%

CCSC[C@](C)(O)c1cc2cc(Cl)ccc2[nH]1
Activity (Rattus norvegicus [1]; Prostate gland): inactive

CCSC[C@@](C)(O)c1cc2cc(C#N)c(C(F)(F)F)cc2[nH]1
Activity (Rattus norvegicus [1]; Prostate gland): inactive

CCSC[C@](C)(O)c1cc2cc(Cl)c(C(F)(F)F)cc2[nH]1
Activity (Rattus norvegicus [1]): 54%

CCSCC(O)c1cc2cc([N+](=O)[O-])c(C(F)(F)F)cc2[nH]1 (configuration not stated)
Activity (Rattus norvegicus [1]): 30%

CCSC[C@](C)(O)c1cc2cc(C#N)c(Cl)cc2[nH]1
Activity (Rattus norvegicus [1]): 83%

CCS(=O)(=O)C[C@](C)(O)c1[nH]c2cc(C(F)(F)F)c(C#N)cc2c1C
half-life [3]: 2 h
ID50 (Rattus norvegicus [1]): 2.4 mg/day
ED50 (Rattus norvegicus [2]): > 30 mg/kg

CCSC[C@](C)(O)c1cc2cc(C#N)ncc2[nH]1
Activity (Rattus norvegicus [1]; Prostate gland): inactive

CCSCC(O)(CSCC)c1cc2cc([N+](=O)[O-])c(C(F)(F)F)cc2[nH]1
Activity (Rattus norvegicus [1]): 32%

CCSC[C@](C)(O)c1cc2cc(C#N)c(OC)cc2[nH]1
Activity (Rattus norvegicus [1]; Prostate gland): inactive

C[C@@](O)(CSCc1cccs1)c1cc2cc([N+](=O)[O-])c(C(F)(F)F)cc2[nH]1
Activity (Rattus norvegicus [1]): 28%

CCSC[C@](C)(O)c1[nH]c2cc(C(F)(F)F)c(C#N)cc2c1C
Activity (Rattus norvegicus [1]): 61%
ED50 (Rattus norvegicus [2]): > 60 mg/kg

O=[N+]([O-])c1cc2cc(C3(O)CCSC3)[nH]c2cc1C(F)(F)F (configuration not stated)
Activity (Rattus norvegicus [1]): 49%

CCSCC(C)(O)Cc1cc2cc([N+](=O)[O-])c(C(F)(F)F)cc2[nH]1 (configuration not stated)
Activity (Rattus norvegicus [1]; Prostate gland): inactive

CCSC[C@](O)(CC)c1cc2cc([N+](=O)[O-])c(C(F)(F)F)cc2[nH]1
Activity (Rattus norvegicus [1]): 73%

CCS(=O)(=O)C[C@](C)(O)c1cc2cc(C#N)c(C(F)(F)F)cc2[nH]1
Activity (Rattus norvegicus [4]): inactive
Activity (LNCaP): Active
half-life [3]: 52 h
bioavailability [5]: 68%
Activity [6]: Active
Activity (Rattus norvegicus [1]): 100%
ID50 (Rattus norvegicus [1]): 0.89 mg/day
ED50 (Rattus norvegicus [2]): 22 mg/kg

CCCCSC[C@@](C)(O)c1cc2cc([N+](=O)[O-])c(C(F)(F)F)cc2[nH]1
Activity (Rattus norvegicus [1]): 40%

CCSC[C@](C)(O)c1cc2cc(C)c(C(F)(F)F)cc2[nH]1
Activity (Rattus norvegicus [1]): 22%

CCSC[C@](C)(O)c1cc2cc(C#N)c(C(F)(F)F)cc2n1CC(F)(F)F
Activity (Rattus norvegicus [1]): 53%

C[C@@](O)(CSCc1ccco1)c1cc2cc([N+](=O)[O-])c(C(F)(F)F)cc2[nH]1
Activity (Rattus norvegicus [1]): 46%

CCSC[C@](C)(O)c1cc2cc(C#N)c(C(F)(F)F)cc2[nH]1 [listing 2 of 2 here]
Activity (Rattus norvegicus [1]): 100%

CCSC[C@](C)(O)c1cc2cc(F)c(C(F)(F)F)cc2[nH]1
Activity (Rattus norvegicus [1]): 58%

CCSC[C@](C)(O)c1cc2cc([N+](=O)[O-])c(C(F)(F)F)cc2o1
Activity (Rattus norvegicus [1]): 38%

CCSC[C@@](C)(O)c1cc2cc([N+](=O)[O-])c(C(F)(F)F)cc2[nH]1
Activity (Rattus norvegicus [1]): 75%

CCSC[C@](C)(O)c1cc2cc(C#N)c(C(F)(F)F)cc2n1COC
Activity (Rattus norvegicus [1]): 37%

CCSC[C@](C)(O)c1cc2cc(Cl)c(Cl)cc2[nH]1
Activity (Rattus norvegicus [1]; Prostate gland): inactive

CC(O)(CS(=O)(=O)c1ccc(F)cc1)C(=O)Nc1ccc(C#N)c(C(F)(F)F)c1 (configuration not stated) [BICALUTAMIDE]
Activity (Rattus norvegicus [1]): 75%
ID50 (Rattus norvegicus [1]): 0.44 mg/day
ED50 (Rattus norvegicus [2]): > 44 mg/kg
